Assay results: patent US6492174B1, “Methods of initiating embryogenic cultures in plants” (Institute of Paper Science & Technology, priority 2000, dated 2002)

Assays:
Assay type in all cases: cell-based
[1] = tested on: Loblolly pine megagametophytes; assay: 30 minute abscisic acid soaking pre-treatment, culture on solid media #1042 with or without 0.1 μM brassinolide, eight weeks
Protocol: In this experiment, the effects of ovule pre-treatment by soaking with abscisic acid solutions of varying concentration was investigated. The abscisic acid treatment was tested on two media, one containing brassinolide and one lacking in brassinolide. The explants were megagametophytes from open pollinated summer cones of four individual trees, representing a multiplicity of genotypes. The seeds contained Stage 2-4 zygotic embryos. Megagametophytes were excised from sterilized seeds, as described in Example 4.
Prior to culturing, the megagametophytes were soaked for 30 minutes in liquid growth media (media #1042, Table 47, minus the gelling agent) containing 0, 5, 10 and 20 ppm abscisic acid. After soaking, the megagametophytes were placed on either one of two solid growth media. While still liquid, 2 ml media was poured into wells on a culture well plate and allowed to solidify. Half the soaked megagametophytes were placed on solid media #1042 (Table 47) and half were placed on solid media #1042 with 0.1 μM brassinolide added.
On solid media where brassinolide was present, there was a dramatic difference in extrusion and initiation between megagametophytes soaked in zero and 5 ppm ABA solutions (Treatments #5 and #6) compared to those soaked in 10 and 20 ppm ABA solutions (Treatments #7 and #8). […] In contrast, megagametophytes treated with higher amounts of ABA in Treatments 7 and 8 had the highest initiation frequencies of any treatment. […] Alternatively, there may have been an interaction between brassinolide and ABA such that low ABA plus brassinolide inhibits extrusion, with this inhibition overcome when ABA concentration is higher.

[2] = tested on: Loblolly pine megagametophytes; assay: Elevated pressure in combination with brassinolide, ABA pre-soak or liquid media #1038, 8 weeks; details: for % Megagametophytes Extruding / % Megagametophytes Initiating: Br 0.1 μM in media #1042, ABA soak 5 ppm 30 minute
Protocol: The previous examples indicate that elevated pressure can enhance extrusion and initiation. This experiment was designed to test the effect of elevated pressure in combination with other treatments to determine the optimal conditions for promoting extrusion and initiation.
Megagametophytes in some treatments received a 30 minute pre-culturing soak in liquid media (#1042 minus the gelling agent) containing 5 ppm ABA. Megagametophytes in Treatments 9 and 10 were fully immersed in liquid media #1038. The experiment consisted of three replications per treatment, per genotype.
Five different treatments were used, each cultured under 1.0 or 1.5 atmospheres for a total of ten treatments (See Table 33).
After 8 weeks culturing, the treatments were scored. Extrusion and initiation were increased by elevated pressure in all treatments.

[3] = tested on: Douglas fir stage 3-5 zygotic embryos attached to megagametophytes; assay: Douglas fir initiation on solid media #121 with brassinolide, ABA, ABA pre-soak or elevated pressure
From the text: The explants used in this experiment were isolated from Douglas fir cones collected in mid-summer from four open-pollinated trees, representing a multiplicity of genotypes. Explants were stage 3-5 (early-midstage) zygotic embryos attached to megagametophytes, prepared as described in Example 2. The embryo and attached megagametophyte were then placed next to each other on the treatment media. As in Example 2, each replication consisted of ten explants in a single petri dish. Each treatment contained four replications per treatment, per genotype.
The treatment media were based on solid media #121, the composition of which is described in Table 5. Media #121 contains no ABA or brassinolide. Treatment #1, the control, consisted of explants cultured on media #121 alone. In Treatment #2, explants were cultured on media #121 containing 0.1 μM brassinolide. In Treatment #3, explants were cultured on media #121 containing 1 ppm ABA. In treatment #4, explants were soaked in liquid media containing 5 ppm ABA for 30 minutes prior to being placed on #121 media. In Treatment #5, explants were cultured on media #121 under 1.5 atmospheres of pressure. The petri dishes were wrapped in PARAFILM and incubated at 23-24° C. in the dark.

[4] = tested on: Norway spruce zygotic embryos; assay: Norway spruce initiation on solid media #56 with ABA, brassinolide or elevated pressure, ten weeks
Protocol: Explants were zygotic embryos flipped out of the megagametophyte, prepared as in Example 1. The experiment consisted of five replications, with a replication consisting of ten explants in a single petri dish. Explants were cultured on solid media #56 (Table 3). Treatment #1 consisted of explants on media #56. In Treatment #2, the medium additionally contained 1 ppm ABA. In Treatment #3, the media contained […] brassinolide. In Treatment #4, the explants were cultured under 1.5 atmospheres of pressure. After ten weeks, the explants were examined and the frequency of embryogenic culture initiation was scored (Table 43).

[5] = genotype 7-1051, 0 ppm ABA/ +Br (0.10 μM)
[6] = genotype M7-56, 0 ppm ABA/ +Br (0.10 μM)
[7] = genotype TC5-1501, 0 ppm ABA/ +Br (0.10 μM)
[8] = genotype TC11-109, 0 ppm ABA/ +Br (0.10 μM)
[9] = total, 0 ppm ABA/ +Br (0.10 μM)
[10] = genotype 7-100, + Pressure 1.5 atm
[11] = genotype 11-1095, + Pressure 1.5 atm
[12] = genotype 21-6, + Pressure 1.5 atm
[13] = genotype 7-1051, 5 ppm ABA/No Br
[14] = genotype 7-1051, 10 ppm ABA/No Br
[15] = genotype 7-1051, 20 ppm ABA/No Br
[16] = genotype M7-56, 5 ppm ABA/No Br
[17] = genotype M7-56, 10 ppm ABA/No Br
[18] = genotype M7-56, 20 ppm ABA/No Br
[19] = genotype TC5-1501, 5 ppm ABA/No Br
[20] = genotype TC5-1501, 10 ppm ABA/No Br
[21] = genotype TC5-1501, 20 ppm ABA/No Br
[22] = genotype TC11-109, 5 ppm ABA/No Br
[23] = genotype TC11-109, 10 ppm ABA/No Br
[24] = genotype TC11-109, 20 ppm ABA/No Br

CC(C)[C@H](C)[C@@H](O)[C@H](O)[C@@H](C)[C@H]1CC[C@H]2[C@@H]3COC(=O)[C@H]4C[C@H](O)[C@H](O)C[C@]4(C)[C@H]3CC[C@]12C [brassinolide]
% Megagametophytes Extruding [1, 5]: 13.3 (6.7) %
Embryogenic Culture Initiation - % Megagametophytes Extruding [1, 5]: 0.0 (0.0) %
% Megagametophytes Extruding [1, 6]: 3.3 (3.3) %
Embryogenic Culture Initiation - % Megagametophytes Extruding [1, 6]: 0.0 (0.0) %
% Megagametophytes Extruding [1, 7]: 0.0 (0.0) %
Embryogenic Culture Initiation - % Megagametophytes Extruding [1, 7]: 0.0 (0.0) %
% Megagametophytes Extruding [1, 8]: 0.0 (0.0) %
Embryogenic Culture Initiation - % Megagametophytes Extruding [1, 8]: 0.0 (0.0) %
% Megagametophytes Extruding [1, 9]: 4.2%
Embryogenic Culture Initiation - % Megagametophytes Extruding [1, 9]: 0%
% Megagametophytes Extruding ([2]; Total, 1.0 atm): 32.2%
% Megagametophytes Initiating ([2]; Total, 1.0 atm): 24.2%
% Megagametophytes Extruding ([2]; Total, + Pressure 1.5 atm): 55.9%
% Megagametophytes Initiating ([2]; Total, + Pressure 1.5 atm): 38.7%
increase of initiation frequency by pressure ([2]; Treatment #4 vs. #3): over 60%
% Megagametophytes Extruding ([2]; genotype 7-100, 1.0 atm): 3.3 (3.3) %
% Megagametophytes Initiating ([2]; genotype 7-100, 1.0 atm): 0.0 (0.0) %
% Megagametophytes Extruding [2, 10]: 43.3 (8.8) %
% Megagametophytes Initiating [2, 10]: 20.0 (5.8) %
% Megagametophytes Extruding ([2]; genotype 11-1095, 1.0 atm): 56.7 (6.7) %
% Megagametophytes Initiating ([2]; genotype 11-1095, 1.0 atm): 39.2 (11.6) %
% Megagametophytes Extruding [2, 11]: 50.0 (21.7) %
% Megagametophytes Initiating [2, 11]: 39.2 (18.6) %
% Megagametophytes Extruding ([2]; genotype 21-6, 1.0 atm): 36.7 (6.7) %
% Megagametophytes Initiating ([2]; genotype 21-6, 1.0 atm): 33.3 (8.8) %
% Megagametophytes Extruding [2, 12]: 74.4 (12.4) %
% Megagametophytes Initiating [2, 12]: 56.9 (13.7) %
% of Megagametophytes Initiating - Mean ([3]; genotype T0232l, +0.1 μM Br in media #121): 27.8%
% of Megagametophytes Initiating - Mean ([3]; genotype T0235l, +0.1 μM Br in media #121): 21.8%
% of Megagametophytes Initiating - Mean ([3]; genotype T0293l, +0.1 μM Br in media #121): 34.6%
% of Megagametophytes Initiating - Mean ([3]; genotype T0525l, +0.1 μM Br in media #121): 30.0%
% of Megagametophytes Initiating - Mean ([3]; total, +0.1 μM Br in media #121): 31.1%
% Initiating (std. error) ([4]; 0.1 pM brassinolide added to medium #56): 46.2 (6.1) %

CC1=CC(=O)CC(C)(C)C1(O)/C=C/C(C)=C\C(=O)O (stereo not shown) [ABA, 5-(1-hydroxy-2,6,6,-trimethyl-4-oxo-2-cyclohexen-1-yl)-3-methyl-2,4-penta dienoic acid]
% Megagametophytes Extruding [1, 13]: 53.3 (8.8) %
Embryogenic Culture Initiation - % Megagametophytes Extruding [1, 13]: 20.0 (10.0) %
% Megagametophytes Extruding [1, 14]: 30.0 (5.8) %
Embryogenic Culture Initiation - % Megagametophytes Extruding [1, 14]: 6.7 (3.3) %
% Megagametophytes Extruding [1, 15]: 40.0 (5.8) %
Embryogenic Culture Initiation - % Megagametophytes Extruding [1, 15]: 13.3 (3.3) %
% Megagametophytes Extruding [1, 16]: 20.0 (5.8) %
Embryogenic Culture Initiation - % Megagametophytes Extruding [1, 16]: 13.3 (3.3) %
% Megagametophytes Extruding [1, 17]: 26.7 (6.7) %
Embryogenic Culture Initiation - % Megagametophytes Extruding [1, 17]: 13.3 (3.3) %
% Megagametophytes Extruding [1, 18]: 36.7 (8.8) %
Embryogenic Culture Initiation - % Megagametophytes Extruding [1, 18]: 6.7 (6.7) %
% Megagametophytes Extruding [1, 19]: 33.3 (6.7) %
Embryogenic Culture Initiation - % Megagametophytes Extruding [1, 19]: 10.0 (0.0) %
% Megagametophytes Extruding [1, 20]: 16.7 (8.8) %
Embryogenic Culture Initiation - % Megagametophytes Extruding [1, 20]: 3.3 (3.3) %
% Megagametophytes Extruding [1, 21]: 40.0 (11.5) %
Embryogenic Culture Initiation - % Megagametophytes Extruding [1, 21]: 6.7 (3.3) %
% Megagametophytes Extruding [1, 22]: 33.3 (3.3) %
Embryogenic Culture Initiation - % Megagametophytes Extruding [1, 22]: 10.0 (5.8) %
% Megagametophytes Extruding [1, 23]: 46.7 (13.3) %
Embryogenic Culture Initiation - % Megagametophytes Extruding [1, 23]: 13.3 (3.3) %
% Megagametophytes Extruding [1, 24]: 46.7 (12.0) %
Embryogenic Culture Initiation - % Megagametophytes Extruding [1, 24]: 13.3 (3.3) %
promotion of extrusion or initiation ([1]; soaking pretreatment, media where no brassinolide was present (Treatments #1-4)): did not promote extrusion or initiation
% Megagametophytes Extruding ([1]; total, 5 ppm ABA/No Br): 35.0%
Embryogenic Culture Initiation - % Megagametophytes Extruding ([1]; total, 5 ppm ABA/No Br): 13.3%
% Megagametophytes Extruding ([1]; total, 10 ppm ABA/No Br): 30.0%
Embryogenic Culture Initiation - % Megagametophytes Extruding ([1]; total, 10 ppm ABA/No Br): 9.2%
% Megagametophytes Extruding ([1]; total, 20 ppm ABA/No Br): 40.9%
Embryogenic Culture Initiation - % Megagametophytes Extruding ([1]; total, 20 ppm ABA/No Br): 10.0%
% Megagametophytes Extruding ([2]; Total, 1.0 atm): 38.4%
% Megagametophytes Initiating ([2]; Total, 1.0 atm): 21.5%
% Megagametophytes Extruding ([2]; Total, + Pressure 1.5 atm): 46.7%
% Megagametophytes Initiating ([2]; Total, + Pressure 1.5 atm): 24.4%
% Megagametophytes Extruding ([2]; genotype 7-100, 1.0 atm): 10.0 (5.8) %
% Megagametophytes Initiating ([2]; genotype 7-100, 1.0 atm): 3.3 (3.3) %
% Megagametophytes Extruding [2, 10]: 23.3 (13.3) %
% Megagametophytes Initiating [2, 10]: 3.3 (3.3) %
% Megagametophytes Extruding ([2]; genotype 11-1095, 1.0 atm): 50.0 (0.0) %
% Megagametophytes Initiating ([2]; genotype 11-1095, 1.0 atm): 23.3 (6.7) %
% Megagametophytes Extruding [2, 11]: 50.0 (5.8) %
% Megagametophytes Initiating [2, 11]: 20.0 (5.8) %
% Megagametophytes Extruding ([2]; genotype 21-6, 1.0 atm): 55.2 (8.7) %
% Megagametophytes Initiating ([2]; genotype 21-6, 1.0 atm): 37.8 (11.8) %
% Megagametophytes Extruding [2, 12]: 66.7 (8.8) %
% Megagametophytes Initiating [2, 12]: 50.0 (11.5) %
% of Megagametophytes Initiating - Mean ([3]; genotype T0232l, +1 ppm ABA in media #121): 21.1%
% of Megagametophytes Initiating - Mean ([3]; genotype T0232l, ABA pre-soak (5 ppm, 30 minutes)): 27.6%
% of Megagametophytes Initiating - Mean ([3]; genotype T0235l, +1 ppm ABA in media #121): 10.5%
% of Megagametophytes Initiating - Mean ([3]; genotype T0235l, ABA pre-soak (5 ppm, 30 minutes)): 25.0%
% of Megagametophytes Initiating - Mean ([3]; genotype T0293l, +1 ppm ABA in media #121): 34.6%
% of Megagametophytes Initiating - Mean ([3]; genotype T0293l, ABA pre-soak (5 ppm, 30 minutes)): 26.9%
% of Megagametophytes Initiating - Mean ([3]; genotype T0525l, +1 ppm ABA in media #121): 10.0%
% of Megagametophytes Initiating - Mean ([3]; genotype T0525l, ABA pre-soak (5 ppm, 30 minutes)): 20.0%
% of Megagametophytes Initiating - Mean ([3]; total, +1 ppm ABA in media #121): 19.1%
% of Megagametophytes Initiating - Mean ([3]; total, ABA pre-soak (5 ppm, 30 minutes)): 24.6%
% Initiating (std. error) ([4]; 1 ppm ABA added to medium #56): 47.4 (5.5) %
